# Assay results taken from US20190351012A1, “TARGETING OF INTERFERON-STIMULATED GENE EXPRESSION TO TREAT INTERFERONOPATHIES” (New York University, priority 2018, published 2019).
# Legend:
# [1] = system: CDK9 at ISG56 and ISG15 promoters; experiment: ChIP for CDK9 (P-TEFb) at ISG promoters in 2fTGH cells; format: cell-based, human; settings: IFN-α 60 min in presence of TSA
# Protocol: FIG. 4. HDAC activity is required for P-TEFb recruitment. (A) HeLa cells were either left untreated or treated with IFN-α for 1 h in presence or absence of 100 or 200 nM of the CDK9 inhibitor flavopiridol (Flay). Using primers spanning intron-exon junctions, nuclear pre-mRNA abundance for ISG54 and RPS11 were quantified using real-time RT-PCR and normalized to GAPDH mRNA. (B) 2fTGH cells were either left untreated or treated with IFN-α in the absence or presence of TSA for 60 min. ChIP assays were performed with antibodies against CDK9 and recovered ISG56 and ISG15 promoter sequences were quantified by real-time PCR relative to input and represented as percent of the input signal. (C) BT474 cells were either left untreated or treated with IFN-α in the absence or presence of TSA after exposure to Geldanamycin (Gelda) for 24 h, as indicated. mRNA for ISG56, OAS2 and c-Myc were quantified by real-time RT-PCR and normalized to GAPDH. […] ISG56 mRNA was quantified using real-time RT-PCR and normalized to GAPDH mRNA abundance (left panel). […] ISG56, Spt5 mRNA, and ISG54 pre-mRNA were quantified using real-time RT-PCR and normalized to GAPDH mRNA abundance.
# To directly probe the involvement of P-TEFb in ISG expression, we assessed its recruitment to chromatin in response to IFN treatment. […]
# [2] = system: BRD4 at ISG56, Mx1 and IRF9 TSS; experiment: ChIP-qPCR for BRD4 at ISG promoters in HeLa cells; format: cell-based, human; settings: 1 h IFN stimulation
# Protocol: FIG. 5. BRD4 is required for ISG transcription. (A) HeLa cells were either left untreated or treated with IFN-α for 1 h in presence or absence of JQ-1 or HMBA. Using primers spanning intron-exon junctions, nuclear pre-mRNA for ISG54 and γ-actin were quantified by real-time RT-PCR and normalized to GAPDH mRNA. (B) Control and BRD4 KD cells were either left untreated or treated with IFN-α. ISG56 and BRD4 mRNA were quantified using real-time RT-PCR and normalized to GAPDH mRNA abundance. (C) HEK293T cells were transfected with pcDNA3 (Ctl) or Brd4 expression constructs along with a luciferase reporter driven by the ISG54 promoter. 24 h after transfection, cells were either left untreated or treated with IFN-α in the absence or presence of TSA before being assayed for luciferase activity (left panel). […] Nuclear proteins were extracted as a soluble fraction and a chromatin bound fraction and analyzed by western blotting using anti-BRD4, H4-AcK5 and actin antibodies. […] (F) ChIP assays were performed with antibodies against BRD4 and recovered ISG56, Mx1 and IRF9 TSS spanning sequences were quantified by real-time PCR, normalized to input, and represented as fold enrichment over the untreated sample. […]
# Chromatin immunoprecipitation was performed as follows. […] Immunoprecipitated DNA sequences were recovered by alcohol precipitation and quantified by real-time PCR compared with input genomic DNA. […]
smiles,measurement,setting,value
"CC(/C=C/C(=O)NO)=C\[C@@H](C)C(=O)c1ccc(N(C)C)cc1 [TSA, Trichostatin A]",chromatin-bound CDK9 at ISG56 and ISG15 promoters,[1],not observed
same,IFN-induced BRD4 recruitment to ISG promoters,[2],abrogated
